Reference: patent US20230331673A1, “COMPOSITION OF COMPOUNDS THAT MODULATE CELL METABOLISM AND METHODS OF USE” (CRESCENTA BIOSCIENCES, priority 2020, published 2023)

tested on: differentiated 3T3-L1 mouse adipocyte cells; assay: Adipocyte glucose consumption in differentiated 3T3-L1 mouse adipocyte cells (loss of glucose from medium, colorimetric); format: cell-based; conditions: compound 10 μM, 22 to 24 hours, differentiated 3T3-L1 adipocytes, compound/DMSO, read-out: Glucose consumption (fold change) Mean
Method: Activity of compounds on adipocyte glucose consumption was tested in differentiated 3T3-L1 mouse adipocyte cells. 3T3-L1 preadipocytes (ATCC) were routinely cultured in a growth medium composed of DMEM high-glucose (Sigma), 10% FBS (Gibco), 10 U/ml penicillin and 10 μg/ml streptomycin (P/S; Gibco). To induce adipogenic differentiation, a confluent layer of 3T3-L1 cells were incubated with the growth medium containing 2 μM rosiglitazone, 1 μM dexamethasone, 500 μM IBMX, and 1 μg/ml insulin (Sigma). Forty-eight (48) hours later (on day 2) and on days 4 and 6, medium of the cells was replaced with fresh medium containing 1 μg/ml insulin. On days 8 and 10, the medium was refreshed with regular growth medium and addition of insulin was omitted. On day 11 or 12, medium of the cells were replaced with fresh medium containing either the indicated compounds (10 μM) or the vehicle in which the compounds were dissolved (DMSO). The final concentration of DMSO was 0.1% (v/v). Growth medium containing 0.1% DMSO was incubated in culture wells containing no cells and used as control. Twenty-two to 24 hours later, medium was harvested and subjected to centrifugation at 10,000 g for 5 min. Glucose concentration in the supernatants was determined using a colorimetric assay (Glucose Assay Kit I, Eton Biosciences). Glucose consumption in compound and vehicle treated cells was measured as loss of glucose from the culture medium and represented as mean fold change (compound/DMSO) t standard deviation (SD).

Row | Structure (SMILES) | fold induction at 10 µM
1 | CCCCCCC1CCCc2c(n(Cc3ccc(C#N)o3)c3c(C(=O)O)cccc23)C1 (stereo not shown) [5-[(5-cyanofuran-2-yl)methyl]-7-hexyl-5H,6H,7H,8H,9H,10H-cyclohepta[b]indole-4-carboxylic acid] | 1.29
2 | CCCC1CCc2c1n(Cc1cccc(C(N)=O)c1)c1c(C(=O)O)cccc21 (stereo not shown) [4-[(3-carbamoylphenyl)methyl]-3-propyl-1H,2H,3H,4H-cyclopenta[b]indole-5-carboxylic acid] | 1.18
3 | CCCCCOC1CCCc2c1n(Cc1cccc(C(N)=O)c1)c1c(C(=O)O)cccc21 (stereo not shown) [9-[(3-carbamoylphenyl)methyl]-1-(pentyloxy)-2,3,4,9-tetrahydro-1H-carbazole-8-carboxylic acid] | 1.09
4 | CCCCCCC1CCCc2c(n(Cc3ccc(C#N)cc3)c3c(C(=O)O)cccc23)C1 (stereo not shown) [5-[(4-cyanophenyl)methyl]-7-hexyl-5H,6H,7H,8H,9H,10H-cyclohepta[b]indole-4-carboxylic acid] | 0.94
5 | CCCCC1CCCc2c(n(Cc3ccc(C(N)=O)cc3)c3c(C(=O)O)cccc23)C1 (stereo not shown) [7-butyl-5-[(4-carbamoylphenyl)methyl]-5H,6H,7H,8H,9H,10H-cyclohepta[b]indole-4-carboxylic acid] | 1.13
6 | CCCCC1CCCc2c(n(Cc3cccnc3)c3c(C(=O)O)cccc23)C1 (stereo not shown) [7-butyl-5-[(pyridin-3-yl)methyl]-5H,6H,7H,8H,9H,10H-cyclohepta[b]indole-4-carboxylic acid] | 1.21
7 | CCCCCC1CCCc2c1c1cccc(C(=O)O)c1n2Cc1cccc(C(N)=O)c1 (stereo not shown) [9-[(3-carbamoylphenyl)methyl]-4-pentyl-2,3,4,9-tetrahydro-1H-carbazole-8-carboxylic acid] | 1.12
8 | CCCCCCC1CCCc2c(n(Cc3ccccc3F)c3c(C(=O)O)cccc23)C1 (stereo not shown) [5-[(2-fluorophenyl)methyl]-7-hexyl-5H,6H,7H,8H,9H,10H-cyclohepta[b]indole-4-carboxylic acid] | 1.17
9 | CCCCC1CCc2c1n(Cc1cccc(C(N)=O)c1)c1c(C(=O)O)cccc21 (stereo not shown) [3-butyl-4-[(3-carbamoylphenyl)methyl]-1H,2H,3H,4H-cyclopenta[b]indole-5-carboxylic acid] | 1.15
10 | CCCCCCC1CCCc2c(n(Cc3cccc(C(N)=O)c3)c3c(C(=O)O)cccc23)C1 (stereo not shown) [5-[(3-carbamoylphenyl)methyl]-7-hexyl-5H,6H,7H,8H,9H,10H-cyclohepta[b]indole-4-carboxylic acid] | 1.26
11 | CCCCCCC1CCc2c(n(Cc3cccc(C#N)c3)c3c(C(=O)O)cccc23)C1 (stereo not shown) [9-[(3-cyanophenyl)methyl]-2-hexyl-2,3,4,9-tetrahydro-1H-carbazole-8-carboxylic acid] | 1.16
12 | CCC1CCc2c(n(Cc3cccc(C(=O)O)c3)c3c(C(=O)O)cccc23)C1 (stereo not shown) [9-[(3-carboxyphenyl)methyl]-2-ethyl-2,3,4,9-tetrahydro-1H-carbazole-8-carboxylic acid] | 1.11
13 | CCC1CCCCc2c1c1cccc(C(=O)O)c1n2Cc1cccc(C#N)c1 (stereo not shown) [5-[(3-cyanophenyl)methyl]-10-ethyl-5H,6H,7H,8H,9H,10H-cyclohepta[b]indole-4-carboxylic acid] | 1.15
14 | CCCCCCC1CCCc2c(n(Cc3cccc(C(N)=O)n3)c3c(C(=O)O)cccc23)C1 (stereo not shown) [5-[(6-carbamoylpyridin-2-yl)methyl]-7-hexyl-5H,6H,7H,8H,9H,10H-cyclohepta[b]indole-4-carboxylic acid] | 1.23
15 | CCCCCCC1CCCc2c(n(Cc3cccc(C#N)n3)c3c(C(=O)O)cccc23)C1 (stereo not shown) [5-[(6-cyanopyridin-2-yl)methyl]-7-hexyl-5H,6H,7H,8H,9H,10H-cyclohepta[b]indole-4-carboxylic acid] | 1.28
16 | CCCCCCC1CCCc2c(n(Cc3c(C)noc3C)c3c(C(=O)O)cccc23)C1 (stereo not shown) [5-[(3,5-dimethyl-1,2-oxazol-4-yl)methyl]-7-hexyl-5H,6H,7H,8H,9H,10H-cyclohepta[b]indole-4-carboxylic acid] | 0.95
17 | CCCCCC1CCCCc2c1c1cccc(C(=O)O)c1n2Cc1cccc(C(N)=O)c1 (stereo not shown) [5-[(3-carbamoylphenyl)methyl]-10-pentyl-5H,6H,7H,8H,9H,10H-cyclohepta[b]indole-4-carboxylic acid] | 1.27
18 | CCCCCCC1CCCc2c(n(Cc3cccc(C(=O)O)n3)c3c(C(=O)O)cccc23)C1 (stereo not shown) [6-({4-carboxy-7-hexyl-5H,6H,7H,8H,9H,10H-cyclohepta[b]indol-5-yl}methyl)pyridine-2-carboxylic acid] | 0.96
19 | CCCCC1CCCCc2c1n(Cc1cccc(C#N)c1)c1c(C(=O)O)cccc21 (stereo not shown) [6-butyl-5-[(3-cyanophenyl)methyl]-5H,6H,7H,8H,9H,10H-cyclohepta[b]indole-4-carboxylic acid] | 1.16

Row | Structure (SMILES) | fold induction at 10 µM
20 | CCC1CCCc2c(n(Cc3cccc(C(N)=O)c3)c3c(C(=O)O)cccc23)C1 (stereo not shown) [5-[(3-carbamoylphenyl)methyl]-7-ethyl-5H,6H,7H,8H,9H,10H-cyclohepta[b]indole-4-carboxylic acid] | 0.96
21 | CCCCC1CCCc2c1c1cccc(C(=O)O)c1n2Cc1cccc(C#N)c1 (stereo not shown) [4-butyl-9-[(3-cyanophenyl)methyl]-2,3,4,9-tetrahydro-1H-carbazole-8-carboxylic acid] | 1.28
22 | CCCCC1CCCc2c(n(Cc3cccc(C#N)c3)c3c(C(=O)NCC(=O)O)cccc23)C1 (stereo not shown) [2-({7-butyl-5-[(3-cyanophenyl)methyl]-5H,6H,7H,8H,9H,10H-cyclohepta[b]indol-4-yl}formamido)acetic acid] | 1.2
23 | CCC1CCCc2c1c1cccc(C(=O)O)c1n2Cc1cccc(C(=O)O)c1 (stereo not shown) [9-[(3-carboxyphenyl)methyl]-4-ethyl-2,3,4,9-tetrahydro-1H-carbazole-8-carboxylic acid] | 1.06
24 | CCCCC1CCCc2c(n(Cc3ccccc3C)c3c(C(=O)O)cccc23)C1 (stereo not shown) [7-butyl-5-[(2-methylphenyl)methyl]-5H,6H,7H,8H,9H,10H-cyclohepta[b]indole-4-carboxylic acid] | 1.12
25 | CCCCCCC1CCCc2c(n(Cc3cccnc3)c3c(C(=O)O)cccc23)C1 (stereo not shown) [7-hexyl-5-[(pyridin-3-yl)methyl]-5H,6H,7H,8H,9H,10H-cyclohepta[b]indole-4-carboxylic acid] | 1.14
26 | CCCCCCC1CCCc2c(n(Cc3cccc(C#N)c3)c3c(C(=O)O)cc(F)cc23)C1 (stereo not shown) [5-[(3-cyanophenyl)methyl]-2-fluoro-7-hexyl-5H,6H,7H,8H,9H,10H-cyclohepta[b]indole-4-carboxylic acid] | 1.33
27 | CCCCCCC1CCCc2c(n(Cc3cccc(C(=O)O)c3)c3c(C(=O)O)cccc23)C1 (stereo not shown) [5-[(3-carboxyphenyl)methyl]-7-hexyl-5H,6H,7H,8H,9H,10H-cyclohepta[b]indole-4-carboxylic acid] | 1.15
28 | CCCCCCC1CCCc2c(n(Cc3cccc(Cl)c3)c3c(C(=O)O)cccc23)C1 (stereo not shown) [5-[(3-chlorophenyl)methyl]-7-hexyl-5H,6H,7H,8H,9H,10H-cyclohepta[b]indole-4-carboxylic acid] | 1.18
29 | CCCCCCC1CCc2c(n(Cc3ccccc3C)c3c(C(=O)O)cccc23)C1 (stereo not shown) [2-hexyl-9-[(2-methylphenyl)methyl]-2,3,4,9-tetrahydro-1H-carbazole-8-carboxylic acid] | 1.23
30 | CCCCC1CCCc2c(n(Cc3cccc(OC)c3)c3c(C(=O)O)cccc23)C1 (stereo not shown) [7-butyl-5-[(3-methoxyphenyl)methyl]-5H,6H,7H,8H,9H,10H-cyclohepta[b]indole-4-carboxylic acid] | 1.23
31 | CCCCC1CCc2c(c3cccc(C(=O)O)c3n2Cc2cccc(C(N)=O)c2)C1 (stereo not shown) [3-butyl-9-[(3-carbamoylphenyl)methyl]-2,3,4,9-tetrahydro-1H-carbazole-8-carboxylic acid] | 1.09
32 | CCCCCC1CCc2c(n(Cc3cccc(C#N)c3)c3c(C(=O)O)cccc23)C1 (stereo not shown) [9-[(3-cyanophenyl)methyl]-2-pentyl-2,3,4,9-tetrahydro-1H-carbazole-8-carboxylic acid] | 1.34
33 | CCCCC1CCCc2c(n(Cc3ccccc3C#N)c3c(C(=O)O)cccc23)C1 (stereo not shown) [7-butyl-5-[(2-cyanophenyl)methyl]-5H,6H,7H,8H,9H,10H-cyclohepta[b]indole-4-carboxylic acid] | 1.1
34 | CCCC1CCc2c(n(Cc3cccc(C(N)=O)c3)c3c(C(=O)O)cccc23)C1 (stereo not shown) [9-[(3-carbamoylphenyl)methyl]-2-propyl-2,3,4,9-tetrahydro-1H-carbazole-8-carboxylic acid] | 1.09
35 | CCCCCOC1CCCc2c1n(Cc1cccc(C#N)c1)c1c(C(=O)O)cccc21 (stereo not shown) [9-[(3-cyanophenyl)methyl]-1-(pentyloxy)-2,3,4,9-tetrahydro-1H-carbazole-8-carboxylic acid] | 1.19
36 | CCCCCC1CCCCc2c1c1cccc(C(=O)O)c1n2Cc1cccc(C#N)c1 (stereo not shown) [5-[(3-cyanophenyl)methyl]-10-pentyl-5H,6H,7H,8H,9H,10H-cyclohepta[b]indole-4-carboxylic acid] | 1.2
37 | CCCCC1Cc2c(n(Cc3cccc(C#N)c3)c3c(C(=O)O)cccc23)C1 (stereo not shown) [2-butyl-4-[(3-cyanophenyl)methyl]-1H,2H,3H,4H-cyclopenta[b]indole-5-carboxylic acid] | 1.28
